From patent US9522914B2, “Azole derivative” (TAISHO PHARMACEUTICAL CO., LTD, priority 2011, dated 2016) come the findings set out here.

Experiment [1] addresses T1, Human V1b receptor (Homo sapiens (Human), UniProt P47901). As to the kind of experiment: Measurement of V1b Receptor Antagonistic Activity (AVP-induced Fluo-4 fluorescence in CHO cells, FDSS). The note with it: inhibition of the response to AVP 2.5 nmol/L, CHO cells stably expressing human V1b receptor. Type of experiment: cell-based. As to the method:
Measurement of V1b Receptor Antagonistic Activity
CHO cells (ATCC) so modified as to express human V1b receptor in a stable manner were cultured in Ham's F-12 medium (containing 10% FBS and 0.5 mg/mL Geneticin). On the day before the test, seeding was conducted at a density of 20,000 cells/well in a 96-well poly-D-lysine coated black plate. On the day of the test, the culture medium was removed, and a loading solution (1×HBSS, 10 mmol/L HEPES, 0.1% bovine serum albumin, 1.25 mmol/L Probenecid, 0.02% Pluronic F-127, 1.5 μmol/L Fluo-4-AM, pH 7.4) was added to each well, followed by incubation in a CO2 incubator for an hour. After the incubation, the loading solution was removed. A test solution (1×HBSS, 10 mmol/L HEPES, 0.1% bovine serum albumin, 1.25 mmol/L Probenecid, pH 7.4) containing any one of test compounds was added to wells, followed by incubation in a CO2 incubator for 30 minutes. The test compound was serially diluted with DMSO so that it would have final concentrations of 0.1 nmol/L to […] at the time of assaying. After the incubation, fluorescence intensity levels were measured and AVP added by means of FDSS (Hamamatsu Photonics K.K.); AVP was added to give a final concentration of 2.5 nmol/L at the time of assaying. […] The fluorescence level in a well to which neither test compound nor AVP was added was defined as 0%, and the fluorescence level in a well to which only AVP was added and no test compound was added was defined as 100%. A dose-response curve was plotted from fluorescence levels after the addition of AVP in the presence of a test compound at various concentrations, and the 50% inhibitory concentration (IC50 value) of the compound was calculated.

The target of experiment [2] is T1, Human V1b receptor. The experiment can be described thus: Binding Test for V1b Receptor ([3H]AVP, crude membrane preparation of 293FT cells). The note with it: inhibition of [3H]AVP binding (0.4 to 1 nmol/L), room temperature, 60 minutes. Summed up:
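Crude membranes from 293FT cells transiently expressing human V1b, incubated with [3H]AVP (0.4 to 1 nmol/L) and compound (0.01 nmol/L–1 μmol/L final) in Tris pH 7.4 with MgCl2 and 0.1% BSA, 60 min at room temperature. Bound label collected by filtration. Nonspecific binding defined with unlabeled AVP; IC50 from dose-response curve.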

T1 sequence (P47901 whole entry): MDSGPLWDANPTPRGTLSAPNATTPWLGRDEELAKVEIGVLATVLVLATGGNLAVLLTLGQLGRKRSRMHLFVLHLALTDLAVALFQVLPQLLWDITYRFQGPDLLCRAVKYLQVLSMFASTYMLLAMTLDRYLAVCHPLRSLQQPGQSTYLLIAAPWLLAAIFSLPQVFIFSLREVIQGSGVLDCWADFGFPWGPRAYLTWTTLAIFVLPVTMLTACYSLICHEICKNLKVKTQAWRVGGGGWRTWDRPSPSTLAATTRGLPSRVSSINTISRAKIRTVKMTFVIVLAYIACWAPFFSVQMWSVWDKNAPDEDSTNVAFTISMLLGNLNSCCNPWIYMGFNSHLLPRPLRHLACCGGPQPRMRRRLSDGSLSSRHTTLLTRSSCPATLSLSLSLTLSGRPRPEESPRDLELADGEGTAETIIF

A word on the IC50: it is the concentration that gives 50% inhibition. Regarding `CC(C)NC(=O)Cn1nc(-c2ccc(CCN3CCOCC3)cc2)nc1-c1cccc(Cl)c1` [Example B-02, 2-[5-(3-chlorophenyl)-3-{4-[2-(morpholin-4-yl)ethyl]phenyl}-1H-1,2,4-triazol-1-yl]-N-(propan-2-yl)acetamide], the results for the IC50 in experiment [1] and in experiment [2] were 10 nM and 2.2 nM, respectively.

`CC(C)NC(=O)Cn1cc(-c2ccc(CCN3CCOCC3)cc2)nc1-c1cccc(Cl)c1` [Example A-02, 2-[2-(3-chlorophenyl)-4-{4-[2-(morpholin-4-yl)ethyl]phenyl}-1H-imidazol-1-yl]-N-(propan-2-yl)acetamide]: the values for the IC50 in experiment [1] and in experiment [2] were 3.2 nM and 3.7 nM, respectively.
